Tests used:
[1] = system: Hh target gene Ptch1 expression in NIH3T3-E1 cells; test: Inhibition of CAPAN-1 conditioned medium-induced Ptch1 mRNA expression, Q-RT-PCR; assay type: cell-based, mouse; settings: CAPAN-1 CM, 72 h
Description: NIH3T3-E1 fibroblasts were obtained from ATCC (Manassas, VA) and cultured, as previously described. CAPAN-1 and PANC-1 human pancreatic cancer cells were obtained from ATCC and cultured in Dulbecco’s Modified Eagle Medium (DMEM) containing 10% heat-inactivated fetal bovine serum (FBS) (Hyclone Laboratories, Logan, UT, USA) and antibiotics, as previously described. The human lung cancer cell lines A549 and H2030 were obtained from ATCC and cultured in RPMI-1640 containing 10% FBS. The human hepatoma cell line HepG2 was obtained from ATCC and cultured in DMEM containing 10% FBS. […]
Total RNA was extracted with the RNeasy Plus Mini Kit from Qiagen, according to the manufacturer’s instructions. […] The cDNAs were then mixed with Qi SYBR Green Supermix (Bio-Rad, Hercules, CA, USA) for quantitative RT-PCR assay using a Bio-Rad I-cycler IQ quantitative thermocycler. […] Fold changes in gene expression were calculated using the ΔΔCt method. […]
Figure 3 Inhibition of ligand-induced Hedgehog signaling. […] After 72 h, RNA was extracted and analyzed by Q-RT-PCR for the expression of Hh target genes Gli1 (a,b,d) and Ptch1 (c), and normalized to Oaz1 expression. […] Luciferase activity was measured and normalized to the Renilla luciferase activity. […]

H2030 cells = test: Cell counting assay, H2030; assay type: cell-based, human
Method: A549 and H2030 cells cultured in 12-well plates at 20% confluence were treated with Oxy186, HPI-1, Gant61, or GDC0449 for 96 hours and then trypsinized and suspended in fresh medium. An aliquot of cell suspension was applied to a hemocytometer and counted under a microscope.
Figure 6 Inhibition of human pancreatic and lung cancer cell proliferation by Oxy186. (a,c) A549, (b) and (d) H2030, (e) PANC-1, and (f) CAPAN-1 cells were treated with the compounds as indicated in RPMI 1640 (a–d) or DMEM (e,f) containing 5% FBS for 96 h and then were trypsinized and counted. Data from a representative experiment are reported as the mean of triplicate determinations ± SD (* p < 0.05 vs. Control; ** p < 0.01 vs. control).

[2] = Metabolic stability in human liver microsomes; assay type: in vitro ADME
[3] = system: Gli1 expression in A549 cells; test: Inhibition of Gli1 expression in A549 cells, Q-RT-PCR; assay type: cell-based, human; settings: 10 µM, 72 h
Description: NIH3T3-E1 fibroblasts were obtained from ATCC (Manassas, VA) and cultured, as previously described. CAPAN-1 and PANC-1 human pancreatic cancer cells were obtained from ATCC and cultured in Dulbecco’s Modified Eagle Medium (DMEM) containing 10% heat-inactivated fetal bovine serum (FBS) (Hyclone Laboratories, Logan, UT, USA) and antibiotics, as previously described. The human lung cancer cell lines A549 and H2030 were obtained from ATCC and cultured in RPMI-1640 containing 10% FBS. The human hepatoma cell line HepG2 was obtained from ATCC and cultured in DMEM containing 10% FBS. Mouse embryonic fibroblasts (MEFs) from suppressor of fused (Sufu) null mice (Sufu^−/−) were provided by Dr. Philip Beachy of Stanford University and cultured in DMEM containing 10% FBS. Gant61, SB431542 and vismodegib (GDC0449) were obtained from Cayman Chemical, HPI-1 was obtained from Abcam. For experiments, cells were treated in a medium containing 5% FBS.
Total RNA was extracted with the RNeasy Plus Mini Kit from Qiagen, according to the manufacturer’s instructions. One microgram of RNA was reverse-transcribed using an iScript Reverse Transcription Supermix from Bio-Rad, to make single-stranded cDNA. The cDNAs were then mixed with Qi SYBR Green Supermix (Bio-Rad, Hercules, CA, USA) for quantitative RT-PCR assay using a Bio-Rad I-cycler IQ quantitative thermocycler. All PCR samples were prepared in triplicate wells in a 96-well plate. […] Fold changes in gene expression were calculated using the ΔΔCt method. […]
Figure 4 Inhibition of Gli and Shh expression in (a) PDAC (PANC-1) and (b,c) human lung cancer cells (A549 and H2030, respectively) by Oxy186. Cells were treated with the compounds as indicated in DMEM or RPMI 1640 containing 5% FBS for (a) 48 or (b,c) 72 hours, then RNA was extracted and analyzed by Q-RT-PCR for the expression of Gli1 and normalized to GAPDH expression. (d) CAPAN-1 cells were treated with the compounds, as indicated, in DMEM containing 5% FBS for 72 h, then RNA was extracted and analyzed by Q-RT-PCR for the expression of Shh and normalized to GAPDH expression. […]

## C[C@]12CC[C@H](O)C[C@@H]1CC[C@@H]1[C@@H]2CC[C@@]2(C)[C@H]1CC[C@@H]2[C@](C)(O)CCc1ccc(F)cc1 [Oxy186, (3S,5S,8R,9S,10S,13S,14S,17S)-17-((R)-4-(4-fluorophenyl)-2-hydroxybutan-2-yl)-10,13-dimethylhexadecahydro-1H-cyclopenta[a]phenanthren-3-ol]
[1]
  Inhibition of ligand-induced Ptch1 mRNA expression: robustly inhibited
H2030 cells; 96 h
  Anti-proliferative effect: significant anti-proliferative effect
H2030 cells; Homo sapiens, NCI-H2030, 96 h, read-out: IC50 for inhibition of cell proliferation
  IC50: 3.1 µM
[2]
  HLM, Half-Life: 45 min
[2]; 60 min, read-out: HLM, % Remaining after 60 min
  remaining at 1 h: 40%
[2]; human, liver microsomes, read-out: HLM, Half-Life
  half-life: 43 min
[3]
  Inhibition of expression of Gli1: significantly inhibited
